Experimental findings from patent US20260125378A2, “Heterocyclic Compounds” (BeOne Medicines I GmbH, priority 2023, published 2026) are described below.

In test [1] the target is T1, Full length DGKζ (in-house protein M1-V929) (Homo sapiens, UniProt Q13574).
T1 construct: His (N); TEV site (N); made in house; host or cells: Sf9 insect cells (Bac-to-Bac baculovirus)
The experiment in a line: Biochemical DGK IC50 assay (ADP-Glo, lipid micelle substrate), DGKζ. To be noted: 1 hour preincubation, 1 hour reaction, room temperature. The essentials:
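Full-length human DGKζ (M1-V929, His-TEV tagged, Sf9 baculovirus-expressed) with DAG/PS lipid micelle substrate in octyl glucoside, at room temperature in 50 mM HEPES, 10 mM MgCl2, 0.01 mM CaCl2 buffer.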
In general terms: ADP-Glo first removes unused ATP, then detects ADP through luciferase.

Test [2] deals with T2, Full length DGKα (D21-10BG, SignalChem) (Homo sapiens, UniProt P23743).
T2 construct: Full length DGKα (D21-10BG, SignalChem); purchased SignalChem D21-10BG
T2 sequence (P23743 whole entry): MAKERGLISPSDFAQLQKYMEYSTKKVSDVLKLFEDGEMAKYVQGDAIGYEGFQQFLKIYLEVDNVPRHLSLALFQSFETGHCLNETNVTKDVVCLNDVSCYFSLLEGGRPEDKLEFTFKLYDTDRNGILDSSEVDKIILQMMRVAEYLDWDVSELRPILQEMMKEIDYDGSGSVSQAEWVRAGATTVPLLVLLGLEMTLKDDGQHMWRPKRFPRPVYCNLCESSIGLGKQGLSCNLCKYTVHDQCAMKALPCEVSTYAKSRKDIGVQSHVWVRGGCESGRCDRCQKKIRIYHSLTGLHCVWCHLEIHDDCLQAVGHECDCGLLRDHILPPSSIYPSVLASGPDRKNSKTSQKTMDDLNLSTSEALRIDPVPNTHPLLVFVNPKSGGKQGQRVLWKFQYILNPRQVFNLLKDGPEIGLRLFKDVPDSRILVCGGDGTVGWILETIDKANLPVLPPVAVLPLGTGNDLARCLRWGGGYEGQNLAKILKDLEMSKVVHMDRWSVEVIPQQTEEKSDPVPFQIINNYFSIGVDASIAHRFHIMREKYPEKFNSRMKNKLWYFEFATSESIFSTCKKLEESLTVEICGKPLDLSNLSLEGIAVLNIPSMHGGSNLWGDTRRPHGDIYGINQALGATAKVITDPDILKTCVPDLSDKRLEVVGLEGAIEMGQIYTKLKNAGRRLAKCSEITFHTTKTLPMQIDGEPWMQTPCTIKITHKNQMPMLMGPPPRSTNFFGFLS
Description: Biochemical DGK IC50 assay (ADP-Glo, lipid micelle substrate), DGKα. To be noted: 1 hour preincubation, 1 hour reaction, room temperature. In a few lines:
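Full-length human DGKα with DAG/PS lipid micelle substrate (in octyl glucoside buffer), reacted 1 h at room temperature in 50 mM HEPES, 10 mM MgCl2, 0.01 mM CaCl2, 0.1 mM Na3VO4, 0.01% BSA, 0.005% Tween-20. ADP formed read by ADP-Glo luminescence; IC50 from inhibition across increasing compound concentrations.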

T1 sequence (Q13574 1-929 isoform Q13574-4): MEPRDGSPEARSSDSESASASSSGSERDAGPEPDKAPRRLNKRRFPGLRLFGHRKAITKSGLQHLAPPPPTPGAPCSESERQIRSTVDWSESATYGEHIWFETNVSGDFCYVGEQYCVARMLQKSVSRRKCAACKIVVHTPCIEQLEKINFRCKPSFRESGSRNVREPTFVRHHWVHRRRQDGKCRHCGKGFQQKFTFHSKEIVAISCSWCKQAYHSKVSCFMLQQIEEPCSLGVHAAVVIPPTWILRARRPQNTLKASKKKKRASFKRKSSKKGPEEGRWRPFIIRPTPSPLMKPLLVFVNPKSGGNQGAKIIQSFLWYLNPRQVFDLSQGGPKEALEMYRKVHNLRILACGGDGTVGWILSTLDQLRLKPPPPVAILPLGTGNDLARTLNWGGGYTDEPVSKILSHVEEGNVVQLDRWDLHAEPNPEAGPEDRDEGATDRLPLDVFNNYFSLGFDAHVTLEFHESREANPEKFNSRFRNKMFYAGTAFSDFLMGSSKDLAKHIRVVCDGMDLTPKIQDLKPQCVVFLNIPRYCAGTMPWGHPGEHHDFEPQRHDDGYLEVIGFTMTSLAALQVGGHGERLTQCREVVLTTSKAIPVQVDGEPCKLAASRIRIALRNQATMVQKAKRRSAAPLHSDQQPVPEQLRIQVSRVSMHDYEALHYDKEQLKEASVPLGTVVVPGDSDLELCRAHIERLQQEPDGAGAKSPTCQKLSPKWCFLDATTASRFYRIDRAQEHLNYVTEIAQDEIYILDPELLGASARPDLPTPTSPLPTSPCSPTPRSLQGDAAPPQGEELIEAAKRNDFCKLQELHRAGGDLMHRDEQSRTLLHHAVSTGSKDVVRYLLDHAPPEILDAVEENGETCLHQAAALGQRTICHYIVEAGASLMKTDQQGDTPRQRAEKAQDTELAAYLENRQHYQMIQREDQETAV

On to `CC(c1ccc2nccnc2c1)N1C[C@H](C)N(c2cc(=O)n(C)c3sc(CC#N)nc23)C[C@H]1C` (single isomer, unassigned) [Compound A194a], for which the IC50 (as a rule, the concentration that inhibits the measured activity by half) in test [1] turned out to be 7 nM; in test [2], 3950 nM.

Turning to `CCn1c(CC#N)nc2c(N3C[C@@H](C)N(C(C)c4cc5c(cn4)OCC(C)(C)O5)C[C@@H]3C)nc(=O)n(C)c21` (stereo partly drawn) [Compound A75, 2-(6-((2S,5R)-4-(1-(2,2-dimethyl-2,3-dihydro-[1,4]dioxino[2,3-c]pyridin-7-yl)ethyl)-2,5-dimethylpiperazin-1-yl)-9-ethyl-3-methyl-2-oxo-3,9-dihydro-2H-purin-8-yl)acetonitrile], the IC50 in test [1] was 253 nM; in test [2], above 150000 nM.

For the compound `CCn1c(CC#N)nc2c(N3C[C@@H](C)N(C(C)c4ccc5c(n4)OC(C)(C)CO5)C[C@@H]3C)c(F)c(=O)n(C)c21` (stereo partly drawn) [Compound A21, 2-(7-((2S,5R)-4-(1-(3,3-dimethyl-2,3-dihydro-[1,4]dioxino[2,3-b]pyridin-6-yl)ethyl)-2,5-dimethylpiperazin-1-yl)-3-ethyl-6-fluoro-4-methyl-5-oxo-4,5-dihydro-3H-imidazo[4,5-b]pyridin-2-yl)acetonitrile], the IC50 in test [1] was 61 nM; in test [2], above 150000 nM.

As to `CC(c1ccc(F)cc1C(F)(F)F)N1C[C@H](C)N(c2cc(=O)n(C)c3sc(CC#N)nc23)C[C@H]1C` (stereo partly drawn) [Compound A195, 2-(7-((2S,5R)-4-(1-(4-fluoro-2-(trifluoromethyl)phenyl)ethyl)-2,5-dimethylpiperazin-1-yl)-4-methyl-5-oxo-4,5-dihydrothiazolo[5,4-b]pyridin-2-yl)acetonitrile], the concentration for half-maximal inhibition (IC50) in test [1] was 25 nM; in test [2], above 150000 nM.

As for `COC[C@H]1CN(C(C)c2ccc3c(c2)OC(C)(C)CO3)[C@H](C)CN1c1nc(=O)n(C)c2c1nc(CC#N)n2C` (single isomer, unassigned) [Compound A12b], the IC50 in test [1] stood at 57 nM; in test [2] it was 27400 nM.

Regarding `CCn1c(CC#N)nc2c(N3C[C@@H](C)N(C(C)c4ccc5c(c4)OC(C)(C)CC5)C[C@@H]3C)nc(=O)n(C)c21` (single isomer, unassigned) [Compound A94a], the IC50 in test [1] came out at 6 nM; in test [2], 16600 nM.

For `CC(c1ccc2c(c1)OC(C)(C)O2)N1C[C@H](C)N(c2nc(=O)n(C)c3c2nc(CC#N)n3C)C[C@H]1C` (single isomer, unassigned) [Compound A98b], the figures for the IC50 in test [1] and in test [2] were 262 nM and 19700 nM, respectively.

Regarding `CCn1c(CC#N)nc2c(N3C[C@@H](C)N(C(C)c4ccnc(N5CCC5)c4)C[C@@H]3C)nc(=O)n(C)c21` (stereo partly drawn) [Compound A121, 2-(6-((2S,5R)-4-(1-(2-(azetidin-1-yl)pyridin-4-yl)ethyl)-2,5-dimethylpiperazin-1-yl)-9-ethyl-3-methyl-2-oxo-3,9-dihydro-2H-purin-8-yl)acetonitrile], the IC50 in test [1] is 212 nM; in test [2], above 150000 nM.

Consider `CC(c1ccc(F)cc1OC(C)(F)F)N1C[C@H](C)N(c2nc(=O)n(C)c3c2nc(CC#N)n3C)C[C@H]1C` (stereo partly drawn) [Compound A31, 2-(6-((2S,5R)-4-(1-(2-(1,1-difluoroethoxy)-4-fluorophenyl)ethyl)-2,5-dimethylpiperazin-1-yl)-3,9-dimethyl-2-oxo-3,9-dihydro-2H-purin-8-yl)acetonitrile], for which the IC50 amounted to 4 nM in test [1] and 110000 nM in test [2].

Regarding `CCn1c(CC#N)nc2c(N3C[C@@H](C)N(C(C)c4ccc5c(c4)C(=O)N(C)CC5)C[C@@H]3C)nc(=O)n(C)c21` (stereo partly drawn) [Compound A93, 2-(6-((2S,5R)-2,5-dimethyl-4-(1-(2-methyl-1-oxo-1,2,3,4-tetrahydroisoquinolin-7-yl)ethyl)piperazin-1-yl)-9-ethyl-3-methyl-2-oxo-3,9-dihydro-2H-purin-8-yl)acetonitrile], the half-maximal inhibitory concentration (IC50) in test [1] was 414 nM; in test [2], above 150000 nM.

Regarding `CC(c1cc2ccccc2cn1)N1C[C@H](C)N(c2nc(=O)n(C)c3c2nc(CC#N)n3C)C[C@H]1C` (stereo partly drawn) [Compound A154, 2-(6-((2S,5R)-4-(1-(isoquinolin-3-yl)ethyl)-2,5-dimethylpiperazin-1-yl)-3,9-dimethyl-2-oxo-3,9-dihydro-2H-purin-8-yl)acetonitrile], the IC50 is 178 nM in test [1] and 2430 nM in test [2].

Turning to `CCn1c(CC#N)nc2c(N3C[C@@H](C)N(C(C)c4ccc5ccn(C)c(=O)c5c4)C[C@@H]3C)nc(=O)n(C)c21` (stereo partly drawn) [Compound A92, 2-(6-((2S,5R)-2,5-dimethyl-4-(1-(2-methyl-1-oxo-1,2-dihydroisoquinolin-7-yl)ethyl)piperazin-1-yl)-9-ethyl-3-methyl-2-oxo-3,9-dihydro-2H-purin-8-yl)acetonitrile], the concentration for half-maximal inhibition (IC50) was 123 nM in test [1] and above 150000 nM in test [2].

Turning to `CC[C@@H]1CN(c2nc(=O)n(C)c3c2nc(CC#N)n3C)[C@@H](C)CN1C(C)c1ccc2c(n1)OC(C)(C)CO2` (mixture of isomers) [Compound A159, 2-(6-((2S,5R)-4-(1-(3,3-dimethyl-2,3-dihydro-[1,4]dioxino[2,3-b]pyridin-6-yl)ethyl)-5-ethyl-2-methylpiperazin-1-yl)-3,9-dimethyl-2-oxo-3,9-dihydro-2H-purin-8-yl)acetonitrile], the values for the IC50 in test [1] and in test [2] were 11 nM and 31500 nM, respectively.

On to `CC(c1ccc(F)cc1OC(F)F)N1C[C@H](C)N(c2nc(=O)n(C)c3c2nc(CC#N)n3C)C[C@H]1C` (stereo partly drawn) [Compound A25, 2-(6-((2S,5R)-4-(1-(2-(difluoromethoxy)-4-fluorophenyl)ethyl)-2,5-dimethylpiperazin-1-yl)-3,9-dimethyl-2-oxo-3,9-dihydro-2H-purin-8-yl)acetonitrile], for which the IC50 in test [1] came out at 15 nM; in test [2], 36900 nM.

For `CCn1c(CC#N)nc2c(N3C[C@@H](C)N(C(C)c4ccc(F)c(C(F)(F)F)c4)C[C@@H]3C)nc(=O)n(C)c21` (stereo partly drawn) [Compound A113, 2-(9-ethyl-6-((2S,5R)-4-(1-(4-fluoro-3-(trifluoromethyl)phenyl)ethyl)-2,5-dimethylpiperazin-1-yl)-3-methyl-2-oxo-3,9-dihydro-2H-purin-8-yl)acetonitrile], the IC50 is 18 nM in test [1] and above 150000 nM in test [2].

Take `CCn1c(CC#N)nc2c(N3C[C@@H](C)N(C(C)c4ccc5c(n4)C(C)(C)CO5)C[C@@H]3C)nc(=O)n(C)c21` (stereo partly drawn) [Compound A181, 2-(6-((2S,5R)-4-(1-(3,3-dimethyl-2,3-dihydrofuro[3,2-b]pyridin-5-yl)ethyl)-2,5-dimethylpiperazin-1-yl)-9-ethyl-3-methyl-2-oxo-3,9-dihydro-2H-purin-8-yl)acetonitrile]: the IC50 is 17 nM in test [1] and above 150000 nM in test [2].

Turning to `CC(c1ccc2c(c1)OC(F)(F)C(F)(F)O2)N1C[C@H](C)N(c2nc(=O)n(C)c3c2nc(CC#N)n3C)C[C@H]1C` (mixture of isomers) [Compound A79, 2-(6-((2S,5R)-2,5-dimethyl-4-(1-(2,2,3,3-tetrafluoro-2,3-dihydrobenzo[b][1,4]dioxin-6-yl)ethyl)piperazin-1-yl)-3,9-dimethyl-2-oxo-3,9-dihydro-2H-purin-8-yl)acetonitrile], the IC50 was 16 nM in test [1] and 16400 nM in test [2].

Take `CC(c1cccnc1C(F)(F)F)N1C[C@H](C)N(c2cc(=O)n(C)c3c2nc(CC#N)n3C)C[C@H]1C` (single isomer, unassigned) [Compound A7a]: the IC50 in test [1] is 3110 nM; in test [2] it was above 10000 nM.
